Test results from patent US20220402925A1, “COMPOUNDS AND METHODS FOR THE TREATMENT OF CYSTIC FIBROSIS” (Flatley Discovery Lab, LLC, priority 2019, published 2022).

Molecular target: T1, F508del CFTR (Homo sapiens, UniProt P13569, DEL508-508)
T1 construct: Primary CF airway epithelial cells were obtained from the UNC Cystic Fibrosis Tissue Procurement and Cell Culture Core; host or cells: primary CF airway epithelial cells
Assay: Equivalent current assay in primary CF airway epithelial cells (Corrector Activity, NAUC normalized to 3 μM VX809)
Assay type: cell-based
Conditions: NAUC as % of positive control (VX-809)
Description: Primary CF airway epithelial cells were obtained from the UNC Cystic Fibrosis Tissue Procurement and Cell Culture Core. The cells are grown at 37° C. in a Heracell 150i incubator using growth media (BEGM, Fischer). Cells were then transferred to differentiation media (airway liquid interface media (ALI) media; Lechner J F and LaVeck M A, J. Tissue Culture Methods 1985, 9: 43-48) for a minimum of 4 weeks on coated Costar transwells. Two days before the assay the mucus on the apical surface of the cells was aspirated after incubating with 200 μL of differentiation media for at least thirty (30) minutes. One day before the assay test compounds were added to the basolateral surface of the cells at various test concentrations dissolved in DMSO. Duplicate wells were prepared giving a n=4 or n=6 protocol.
Cells were treated for 24 hours with various combinations and concentrations of the test articles, reference standard (3 μM VX809, positive control). Compounds stock solutions were prepared in DMSO and diluted 1/1000 into ALI media to their final assay concentration. Cells were treated with combination solutions (2 mL of each dilution) and incubated at 37° C. for 24 h.
For the equivalent current assay, cells on six Transwell (24-well) plates were treated. Each Transwell plate was filled with 200 μl of HBS on the apical surface and 2 ml on the basolateral surface. Plates were placed horizontally in a heated mount at 37° C. and equilibrated for 30 minutes. Resting current was measured for 15 min and then blocked by the apical addition of 5 μM benzamil. After 20 min, CFTR activator (10 μM forskolin) and potentiator (either 1 μM VX-770 or 3 μM FDL176) were added to both the apical and basolateral side to stimulate CFTR. An increase in chloride current is seen as an upward deflection of the trace. After another 60 min, CFTR-172 (a CFTR inhibitor, 20 μM) and/or bumetanide (20 uM) was added to block CFTR mediated chloride current.
The raw data, voltage vs. time and resistance vs. time for the equivalent current assay (sampling interval: 6 minutes) were transferred to Excel (Microsoft Office Professional, version 14.0.7106.5003) for analysis. CFTR specific current was computed from I=V/R (Ohms Law), the average amplitude of the increase in current elicited upon addition forskolin and ending upon addition of the CFTR channel specific blocker CFTR-172. This average is equivalent to the sum of the average forskolin activated and the average VX770-potentiated currents. The average current measured in vehicle (0.1% DMSO) treated cells, IV, was subtracted from the current for the test article, ITA, or from the corrector reference standard VX809 (3 uM, ISTD). For replicate measurements, the averaged vehicle subtracted response for the test article, was normalized to the averaged vehicle subtracted response of the reference corrector VX809 (3 μM).
INSC=(ITA−IV)(ave)/(ISTD−IV)(ave) (Equation 1)
A second endpoint, for the equivalent current assay, evaluated was NAUC, the normalized area under the curve (AUC) measuring the response after addition of forskolin and potentiator to the time point right before the addition of the CFTR inhibitor. The AUC is effectively the average response multiplied by the duration of the response. The AUC of the test article, AUCTA was then corrected by subtracting the average vehicle response, AUCV,ave over the same time range, and normalized as for the inhibitor-sensitive current to the difference of the corrector reference standard VX809 (3 μM VX809r,ave and the vehicle response:
NAUCTA=[AUCTA−AUCV,ave]/[AUCVx809r,ave−AUCV,ave] (Equation 2).
The normalized value for DMSO is 0.0 and for VX-809 alone is 1.0 for both of these equations.
Experiments were run with a minimum of n=4 replicates per concentration. Since the distribution for the ratio of two normal distributions is a Cauchy distribution, the median value must be used for the average and the average deviation must be used for the error of all normalized data. […]

T1 sequence (P13569 with tags, fused parts or gaps DEL508-508): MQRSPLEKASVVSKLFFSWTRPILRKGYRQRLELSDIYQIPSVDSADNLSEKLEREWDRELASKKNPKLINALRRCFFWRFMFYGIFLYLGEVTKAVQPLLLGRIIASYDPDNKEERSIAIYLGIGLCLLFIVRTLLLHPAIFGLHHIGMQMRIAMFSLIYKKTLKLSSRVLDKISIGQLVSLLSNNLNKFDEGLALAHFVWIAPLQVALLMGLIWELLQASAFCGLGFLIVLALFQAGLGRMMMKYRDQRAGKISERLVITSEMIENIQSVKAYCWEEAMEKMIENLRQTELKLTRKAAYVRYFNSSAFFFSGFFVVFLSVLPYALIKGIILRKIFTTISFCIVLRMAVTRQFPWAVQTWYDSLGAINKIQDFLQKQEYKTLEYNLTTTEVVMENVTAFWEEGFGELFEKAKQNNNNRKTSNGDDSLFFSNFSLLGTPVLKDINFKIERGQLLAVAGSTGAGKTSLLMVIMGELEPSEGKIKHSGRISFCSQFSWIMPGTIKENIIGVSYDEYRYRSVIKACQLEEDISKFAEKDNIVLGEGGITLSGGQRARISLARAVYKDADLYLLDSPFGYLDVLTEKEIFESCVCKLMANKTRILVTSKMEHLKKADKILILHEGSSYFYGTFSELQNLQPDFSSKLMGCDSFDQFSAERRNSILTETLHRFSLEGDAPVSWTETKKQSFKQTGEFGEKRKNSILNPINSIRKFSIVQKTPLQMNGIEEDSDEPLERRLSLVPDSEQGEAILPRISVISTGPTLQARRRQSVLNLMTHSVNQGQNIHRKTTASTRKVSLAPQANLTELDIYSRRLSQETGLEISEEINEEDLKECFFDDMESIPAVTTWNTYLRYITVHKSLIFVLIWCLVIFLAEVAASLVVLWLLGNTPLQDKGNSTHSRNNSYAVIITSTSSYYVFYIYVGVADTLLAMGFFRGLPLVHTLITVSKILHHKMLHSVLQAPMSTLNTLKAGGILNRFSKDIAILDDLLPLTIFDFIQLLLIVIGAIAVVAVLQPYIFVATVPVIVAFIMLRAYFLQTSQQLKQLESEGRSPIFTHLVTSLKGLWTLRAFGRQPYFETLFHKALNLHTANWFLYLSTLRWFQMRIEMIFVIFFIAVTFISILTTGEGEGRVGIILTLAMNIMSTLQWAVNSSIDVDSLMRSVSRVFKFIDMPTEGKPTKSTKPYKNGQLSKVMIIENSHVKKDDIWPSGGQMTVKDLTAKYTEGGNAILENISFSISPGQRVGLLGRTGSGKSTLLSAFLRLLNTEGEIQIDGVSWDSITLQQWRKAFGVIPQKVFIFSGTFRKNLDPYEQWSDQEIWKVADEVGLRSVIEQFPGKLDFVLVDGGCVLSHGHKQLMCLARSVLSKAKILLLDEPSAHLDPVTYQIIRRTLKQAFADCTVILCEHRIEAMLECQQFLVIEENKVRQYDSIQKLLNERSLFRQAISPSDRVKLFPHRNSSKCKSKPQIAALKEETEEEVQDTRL

Structure (SMILES) | Corr Activity (NAUC)
CC(C)(C)NC(=O)c1cc2c(=O)n(CC(=O)N3CCCc4c3ccc3c4OC(F)(F)O3)nc(-c3cccc(Cl)c3)c2o1 [Example 128] | ++ (NAUC 70-40% of positive control)
CC(C)(C)NC(=O)c1cc2c(=O)n(CC(=O)N3CCCc4c3ccc3c4OC(F)(F)O3)nc(-c3cccc(C#N)c3)c2o1 [Example 129] | ++ (NAUC 70-40% of positive control)
CCN(C(=O)Cn1nc(-c2cc(C#N)cc(C(C)(C)C)c2)c2oc(C(=O)NC(C)(C)C)cc2c1=O)c1ccc2c(c1)OC(F)(F)O2 [Example 130] | +++ (NAUC>70% of positive control)
CCN(C(=O)Cn1nc(-c2cc(C)cc(C#N)c2)c2oc(C(=O)NC(C)(C)C)cc2c1=O)c1ccc2c(c1)OC(F)(F)O2 [Example 131] | +++ (NAUC>70% of positive control)
Cc1cc(C#N)cc(-c2nn(CC(=O)N(C)c3ccc4c(c3)OC(F)(F)O4)c(=O)c3cc(C(=O)NC(C)(C)C)oc23)c1 [Example 132] | +++ (NAUC>70% of positive control)
CCN(C(=O)Cn1nc(-c2cc(C)cc(C#N)c2)c2oc(C(=O)NC(C)(C)C)cc2c1=O)c1cc2c(cc1C)OC(F)(F)O2 [Example 133] | +++ (NAUC>70% of positive control)
Cc1cc(C#N)cc(-c2nn(CC(=O)N(C)c3cc4c(cc3C)OC(F)(F)O4)c(=O)c3cc(C(=O)NC(C)(C)C)oc23)c1 [Example 134] | ++ (NAUC 70-40% of positive control)
Cc1cc2c(cc1N(C)C(=O)Cn1nc(-c3cc(F)cc(C#N)c3)c3oc(C(=O)NC(C)(C)C)cc3c1=O)OC(F)(F)O2 [Example 135] | +++ (NAUC>70% of positive control)
CCN(C(=O)Cn1nc(-c2cc(F)cc(C#N)c2)c2oc(C(=O)NC(C)(C)C)cc2c1=O)c1cc2c(cc1C)OC(F)(F)O2 [Example 136] | +++ (NAUC>70% of positive control)
CCN(C(=O)Cn1nc(-c2cc(Cl)cc(C#N)c2)c2oc(C(=O)NC(C)(C)C)cc2c1=O)c1cc2c(cc1C)OC(F)(F)O2 [Example 137] | +++ (NAUC>70% of positive control)
Cc1cc2c(cc1N(C)C(=O)Cn1nc(-c3cc(Cl)cc(C#N)c3)c3oc(C(=O)NC(C)(C)C)cc3c1=O)OC(F)(F)O2 [Example 138] | +++ (NAUC>70% of positive control)
Cc1c(N(C)C(=O)Cn2nc(-c3cc(F)cc(C#N)c3)c3oc(C(=O)NC(C)(C)C)cc3c2=O)ccc2c1OC(F)(F)O2 [Example 139] | +++ (NAUC>70% of positive control)
CCN(C(=O)Cn1nc(-c2cc(F)cc(C#N)c2)c2oc(C(=O)NC(C)(C)C)cc2c1=O)c1ccc2c(c1C)OC(F)(F)O2 [Example 140] | ++ (NAUC 70-40% of positive control)
Cc1c(N(C)C(=O)Cn2nc(-c3cc(Cl)cc(C#N)c3)c3oc(C(=O)NC(C)(C)C)cc3c2=O)ccc2c1OC(F)(F)O2 [Example 141] | +++ (NAUC>70% of positive control)
CCN(C(=O)Cn1nc(-c2cc(Cl)cc(C#N)c2)c2oc(C(=O)NC(C)(C)C)cc2c1=O)c1ccc2c(c1C)OC(F)(F)O2 [Example 142] | ++ (NAUC 70-40% of positive control)
CN(C(=O)Cn1nc(-c2cc(C#N)cc(C(F)(F)F)c2)c2oc(C(=O)NC(C)(C)C)cc2c1=O)c1ccc2c(c1)OC(F)(F)O2 [Example 143] | ++ (NAUC 70-40% of positive control)
CCN(C(=O)Cn1nc(-c2cc(C#N)cc(C(F)(F)F)c2)c2oc(C(=O)NC(C)(C)C)cc2c1=O)c1ccc2c(c1)OC(F)(F)O2 [Example 144] | +++ (NAUC>70% of positive control)
Cc1cc2c(cc1N(C)C(=O)Cn1nc(-c3cc(C#N)cc(C(F)F)c3)c3oc(C(=O)NC(C)(C)C)cc3c1=O)OC(F)(F)O2 [Example 145] | ++ (NAUC 70-40% of positive control)
CN(C(=O)Cn1nc(-c2cc(C#N)cc(C(F)F)c2)c2oc(C(=O)NC(C)(C)C)cc2c1=O)c1ccc2c(c1)OC(F)(F)O2 [Example 146] | +++ (NAUC>70% of positive control)

Structure (SMILES) | Corr Activity (NAUC)
CCN(C(=O)Cn1nc(-c2cccc(C#N)c2)c2oc(C(=O)NC(C)(C)C)cc2c1=O)c1ccc2c(c1F)OC(F)(F)O2 [Example 147] | +++ (NAUC>70% of positive control)
CN(C(=O)Cn1nc(-c2cccc(C#N)c2)c2oc(C(=O)NC(C)(C)C)cc2c1=O)c1ccc2c(c1F)OC(F)(F)O2 [Example 148] | +++ (NAUC>70% of positive control)
CCN(C(=O)Cn1nc(-c2cccc(C#N)c2)c2oc(C(=O)NC(C)(C)C(F)(F)F)cc2c1=O)c1ccc2c(c1)OC(F)(F)O2 [Example 149] | +++ (NAUC>70% of positive control)
CCN(C(=O)Cn1nc(-c2cc(C)cc(C#N)c2)c2oc(C(=O)NC(C)(C)C(F)(F)F)cc2c1=O)c1ccc2c(c1)OC(F)(F)O2 [Example 150] | +++ (NAUC>70% of positive control)
CCN(C(=O)Cn1nc(-c2cc(C)cc(C#N)c2)c2oc(C(=O)NC(C)(C)C(F)(F)F)cc2c1=O)c1cc2c(cc1C)OC(F)(F)O2 [Example 151] | +++ (NAUC>70% of positive control)
CCN(C(=O)Cn1nc(-c2cc(C)cc(C#N)c2)c2oc(C(=O)NC3(C(F)(F)F)CC3)cc2c1=O)c1ccc2c(c1)OC(F)(F)O2 [Example 152] | +++ (NAUC>70% of positive control)
CCN(C(=O)Cn1nc(-c2cccc(C#N)c2)c2oc(C(=O)NC3(C(F)(F)F)CC3)cc2c1=O)c1ccc2c(c1)OC(F)(F)O2 [Example 153] | +++ (NAUC>70% of positive control)
CCN(C(=O)Cn1nc(-c2cc(C)cc(C#N)c2)c2oc(C(=O)NC3(C(F)(F)F)CC3)cc2c1=O)c1cc2c(cc1C)OC(F)(F)O2 [Example 154] | +++ (NAUC>70% of positive control)
Cc1nc2ccc(N(C)C(=O)Cn3nc(-c4cccc(F)c4)c4oc(C(=O)NC(C)C)cc4c3=O)cc2o1 [Example 155] | ++ (NAUC 70-40% of positive control)
Cc1nc2ccc(N(C)C(=O)Cn3nc(-c4cccc(C#N)c4)c4oc(C(=O)NC(C)C)cc4c3=O)cc2o1 [Example 156] | ++ (NAUC 70-40% of positive control)
Cc1nc2ccc(N(C)C(=O)Cn3nc(-c4cccc(F)c4)c4oc5ccccc5c4c3=O)cc2o1 [Example 157] | ++ (NAUC 70-40% of positive control)
Cc1nc2ccc(N(C)C(=O)Cn3nc(-c4cccc(C#N)c4)c4oc5ccccc5c4c3=O)cc2o1 [Example 158] | +++ (NAUC>70% of positive control)
CCN(C(=O)Cn1nc(-c2cccc(C#N)c2)c2oc3ccccc3c2c1=O)c1ccc2c(c1)OC(F)(F)O2 [Example 159] | +++ (NAUC>70% of positive control)
O=C(Cn1nc(-c2cccc(F)c2)c2occc2c1=O)N1CCCc2c1ccc1c2OC(F)(F)O1 [Example 162] | +++ (NAUC>70% of positive control)
Cc1cc(C#N)cc(-c2nn(CC(=O)N3CCCc4c3ccc3c4OC(F)(F)O3)c(=O)c3ccoc23)c1 [Example 163] | +++ (NAUC>70% of positive control)
CCN(C(=O)Cn1nc(-c2cc(C)cc(C#N)c2)c2occc2c1=O)c1cc2c(cc1C)OC(F)(F)O2 [Example 164] | +++ (NAUC>70% of positive control)
Cc1cc(C#N)cc(-c2nn(CC(=O)N(C)c3cc4c(cc3C)OC(F)(F)O4)c(=O)c3ccoc23)c1 [Example 165] | +++ (NAUC>70% of positive control)
Cc1cc2c(cc1N(C)C(=O)Cn1nc(-c3cc(F)cc(C#N)c3)c3occc3c1=O)OC(F)(F)O2 [Example 166] | +++ (NAUC>70% of positive control)
